Test results taken from the Bradley open melting point set (2014).
Several values for one entry are separate records, joined by “and”; a condition that tells them apart may be missing. Identical values can stand only once. Counter-ions that a name gives are not always drawn.

Row | Structure (SMILES) | melting point
1 | CCCCCCC(=O)O [heptanoic acid] | -8 °C
2 | CCCCCCC(=O)O [heptanoic_acid] | -6 °C
3 | ClC(Cl)=C(Cl)C(Cl)=C(Cl)Cl [hexachloro-1,3-butadiene] | -21 °C
4 | ClC(Cl)(Cl)C(Cl)(Cl)Cl [hexachloroethane] | 192 °C
5 | Cc1c(C)c(C)c(C)c(C)c1C [hexamethylbenzene] [listing 1 of 2 here] | 164 °C
6 | Cc1c(C)c(C)c(C)c(C)c1C [hexamethylbenzene] [listing 2 of 2 here] | 164 °C and 168 °C
7 | C[Si](C)(C)N[Si](C)(C)C [hexamethyldisilazane] | -78 °C
8 | C[Si](C)(C)O[Si](C)(C)C [hexamethyldisiloxane] | -67 °C
9 | CCCCCC=O [hexanal] | -56 °C
10 | CCCCCC=O [hexanaldehyde] | -56 °C
11 | CCCCCC(=O)O [hexanoic acid] | -3 °C
12 | CCCCCC(=O)OC(=O)CCCCC [hexanoic anhydride] | -40 °C
13 | CCCCCC(=O)O [hexanoic_acid] | -3 °C
14 | CCCCCCC#N [hexyl_cyanide] | -63 °C
15 | CCN(CC)CCNc1ccc(CO)c2sc3ccccc3c(=O)c12 [hycanthone] | 101 °C
16 | NS(=O)(=O)c1cc2c(cc1C(F)(F)F)NCNS2(=O)=O [hydroflumethiazide] | 272 °C
17 | CC(=O)CO [hydroxyacetone] | -17 °C
18 | N#Cc1ccc2[nH]ccc2c1 [indole-5-carbonitrile] | 106 °C
19 | CCOC(=O)Cc1c(C)n(C(=O)c2ccc(Cl)cc2)c2ccc(OC)cc12 [indomethacin ethyl ester] | 96 °C
20 | COc1ccc2c(c1)c(CC(=O)O)c(C)n2C(=O)c1ccc(Cl)cc1 [indomethacin] [listing 1 of 2 here] | 159 °C and 160 °C
21 | COc1ccc2c(c1)c(CC(=O)O)c(C)n2C(=O)c1ccc(Cl)cc1 [indomethacin] [listing 2 of 2 here] | 160 °C
22 | O=C(O)CI [iodoacetic acid] | 81 °C
23 | CCI [iodoethane] | -108 °C
24 | CI [iodomethane] | -66 °C
25 | CC(C)c1ncc([N+](=O)[O-])n1C [ipronidazole] | 61 °C
26 | CC(C)COC(=O)C(C)C [isobutyl_isobutyrate] | -80 °C
27 | CC1=CC(=O)CC(C)(C)C1 [isophorone] | -8 °C

Row | Structure (SMILES) | melting point
28 | O=Cc1cccc(C=O)c1 [isophthalaldehyde] | 89 °C
29 | CC(C)OC=O [isopropyl formate] | -93 °C
30 | CC(C)S[C@@H]1O[C@H](CO)[C@H](O)[C@H](O)[C@H]1O [isopropyl-beta-d-thiogalactoside] | 112 °C
31 | CC(=O)N1CCN(c2ccc(OC[C@H]3CO[C@](Cn4ccnc4)(c4ccc(Cl)cc4Cl)O3)cc2)CC1 [ketoconazol] | 146 °C
32 | N[C@@H](Cc1ccc(O)c(O)c1)C(=O)O [l-dopa] | 277 °C
33 | CCOC(=O)CSCCC1NC(C(=O)O)CS1 (stereo not given) [letosteine] | 142 °C
34 | Cc1cccc(C)c1NC(=O)CN1CCN(CCCC(c2ccc(F)cc2)c2ccc(F)cc2)CC1 [lidoflazine] | 159 °C
35 | ClC1C(Cl)C(Cl)C(Cl)C(Cl)C1Cl (stereo not given) [lindane] | 114 °C
36 | Cl[C@H]1[C@H](Cl)[C@@H](Cl)[C@@H](Cl)[C@H](Cl)[C@H]1Cl [lindane] | 113 °C and 112 °C
37 | CC(Oc1c(Cl)cccc1Cl)C1=NCCN1 (stereo not given) [lofexidine] | 126 °C
38 | CCn1cc(C(=O)O)c(=O)c2cc(F)c(N3CCNC(C)C3)c(F)c21 (stereo not given) [lomefloxacin] | 240 °C
39 | Clc1ccc(-c2nc3c4ccccc4ccn3n2)cc1 [lotrifen] | 238 °C
40 | Nc1cccc(CO)c1 [m-amino_benzyl_alcohol] | 95 °C
41 | Nc1cccc(Br)c1 [m-bromoaniline] | 17 °C
42 | Oc1cccc(Cl)c1 [m-chlorophenol] | 34 °C
43 | N#Cc1cccc(-c2ccccc2)c1 [m-cyanobiphenyl] | 49 °C
44 | CC(=O)c1cccc(C(C)=O)c1 [m-diacetylbenzene] | 36 °C
45 | N#CCc1cccc(O)c1 [m-hydroxy_phenylacetonitrile] | 53 °C
46 | O=C(O)c1cccc(CO)c1 [m-hydroxymethyl_benzoic_acid] | 115 °C
47 | N#Cc1cccc(CO)c1 [m-hydroxymethyl_benzonitrile] | 28 °C
48 | Nc1cccc(I)c1 [m-iodoaniline] | 25 °C
49 | O=C(O)Cc1cccc([N+](=O)[O-])c1 [m-nitro_phenylacetic_acid] | 119 °C
50 | Cc1cccc([N+](=O)[O-])c1 [m-nitrotoluene] | 16 °C
51 | Cc1cccc(C(N)=O)c1 [m-toluamide] | 96 °C
52 | Cc1cccc(C)c1 [m-xylene] | -47 °C
53 | ClCc1cccc(CCl)c1 [m-xylylene dichloride] | 35 °C
54 | O=C1C=CC(=O)O1 [maleic anhydride] | 54 °C

Row | Structure (SMILES) | melting point
55 | N#CCC#N [malononitrile] | 34 °C
56 | Cc1cccc(Nc2ccccc2C(=O)O)c1C [mefenamic acid] | 230 °C
57 | C=C1CC2C3C=C(C)C4=CC(=O)CCC4(C)C3CCC2(C)C1(OC(C)=O)C(C)=O (stereo not given) [melengestrolacetate] | 224 °C
58 | CCC1(c2ccccc2)C(=O)NC(=O)N(C)C1=O (stereo not given) [mephobarbital] | 176 °C
59 | O=C(O)CC(S)C(=O)O (stereo not given) [mercaptosuccinic acid] | 152 °C
60 | Cc1cc(C)cc(C)c1 [mesitylene] | -45 °C
61 | COCC(=O)N(c1c(C)cccc1C)C(C)C(=O)OC (stereo not given) [metalaxyl] | 72 °C
62 | CC(C)NCC(O)c1cc(O)cc(O)c1 (stereo not given) [metaproterenol] | 100 °C
63 | C=C(C)C=O [methacrolein] | -81 °C
64 | C [methane] | -183 °C
65 | CS(=O)(=O)OS(C)(=O)=O [methanesulfonic anhydride] | 67 °C
66 | CS(=O)(=O)Cl [methanesulfonyl chloride] | -33 °C
67 | COc1ccc(C(=O)c2ccccc2Cl)cc1OC [methanone, (2-chlorophenyl)(3,4-dimethoxyphenyl)-] | 126 °C
68 | CCC1(CC)C(=O)NC(=O)N(C)C1=O [metharbital] | 150 °C
69 | COCC(=O)O [methoxyacetic acid] | 8 °C
70 | COC(=O)c1ccc2[nH]nnc2c1 [methyl 1h-benzotriazole-5-carboxylate] | 174 °C
71 | COC(=O)C1(C)C(C)=Nc2ccccc21 (stereo not given) [methyl 2,3-dimethyl-3H-indole-3-carboxylate] | 81 °C
72 | COC(=O)c1cc(O)c(O)c(O)c1 [methyl 3,4,5-trihydroxybenzoate] | 201 °C
73 | COC(=O)CCC(C)C1CCC2C3C=CC4CC(OC(C)=O)CCC4(C)C3CC(OC(C)=O)C12C (stereo not given) [methyl 3,12-bis(acetyloxy)chol-6-en-24-oate] | 84 °C
74 | COC(=O)CCC(C)C1CCC2C3CCC4CC(=O)CCC4(C)C3CC(=O)C12C (stereo not given) [methyl 3,12-dioxocholan-24-oate] | 130 °C
75 | COC(=O)c1sccc1N [methyl 3-aminothiophene-2-carboxylate] | 65 °C
76 | COC(=O)CCC(C)C1CCC2C3CCC4CC(=O)CCC4(C)C3CCC12C (stereo not given) [methyl 3-oxocholan-24-oate] | 117 °C
77 | COC(=O)c1ccc(N(C)C)cc1 [methyl 4-dimethylaminobenzoate] | 100 °C
78 | COC(=O)C1C(=O)C=C(O)CC1C (stereo not given) [methyl 4-hydroxy-6-methyl-2-oxo-3-cyclohexene-1-carboxylate] | 123 °C
79 | COC(=O)CCC(C)C1CCC2C3C(OC(C)=O)CC4CC(=O)CCC4(C)C3CC(=O)C12C (stereo not given) [methyl 7-(acetyloxy)-3,12-dioxocholan-24-oate] | 166 °C
80 | COC(=O)/C(=C\c1ccccc1)Cc1ccccc1 [methyl (2Z)-2-benzyl-3-phenylprop-2-enoate] | 28 °C
81 | COC(=O)CC(C)=O [methyl acetoacetate] | -80 °C

Row | Structure (SMILES) | melting point
82 | C=CC(=O)OC [methyl acrylate] | -75 °C
83 | CO[C@@H]1O[C@H](CO)[C@H](O)[C@H](O)[C@H]1O [methyl beta-d-galactopyranoside] | 177 °C
84 | COC(N)=O [methyl carbamate] | 55 °C
85 | COC(=O)C(C#N)c1ccccc1[N+](=O)[O-] (stereo not given) [methyl cyano(2-nitrophenyl)acetate] | 88 °C
86 | CCCCCCCC/C=C/CCCCCCCC(=O)OC [methyl elaidate] | 10 °C
87 | COC(=O)C(O)c1ccccc1[N+](=O)[O-] (stereo not given) [methyl hydroxy(2-nitrophenyl)acetate] | 62 °C
88 | C=C(C)C(=O)OC [methyl methacrylate] | -48 °C
89 | COC(=O)CS(C)(=O)=O [methyl methylsulfonylacetate] | 61 °C
90 | COC(=O)c1ccc(C)cc1 [methyl p-toluate] | 34 °C
91 | COS(=O)(=O)c1ccc(C)cc1 [methyl p-toluenesulfonate] | 26 °C
92 | CS(=O)(=O)c1ccccc1 [methyl phenyl sulfone] | 87 °C
93 | CCC(=O)OC [methyl propionate] | -88 °C
94 | COC(=O)c1cccc(OC(C)=O)c1 [methyl_3-acetoxybenzoate] | 29 °C
95 | COC(=O)c1cccc([N+](=O)[O-])c1 [methyl_3-nitrobenzoate] | 80 °C
96 | COC(=O)c1ccc(CO)cc1 [methyl_4-hydroxymethylbenzoate] | 51 °C
97 | COC(=O)c1ccc(C)cc1 [methyl_4-methylbenzoate] | 37 °C
98 | COC(=O)CC(C)=O [methyl_acetoacetate] | -80 °C
99 | CC#N [methyl_cyanide] | -46 °C
100 | C=C(C)C(=O)OC [methyl_methacrylate] | -48 °C
101 | COC(=O)c1ccccc1O [methyl_salicylate] | -7 °C
102 | CB(O)O [methylboronic acid] | 92 °C
103 | O=P(O)(O)CP(=O)(O)O [methylenediphosphonic acid] | 203 °C
104 | C[C@]12CCC(=O)C=C1CC[C@@H]1[C@@H]2CC[C@@]2(C)[C@H]1CC[C@]2(C)O [methyltestosterone] | 164 °C
105 | CCN(CC)CCNC(=O)c1cc(Cl)c(N)cc1OC [metoclopramide] | 147 °C
